US9271905B2, “Process for preparing polyurea microcapsules” (Firmenich S.A., priority 2010, dated 2016)
Where two headings read alike, the source gives them in different places.

Assay: LogP of the perfume ingredients
Assay type: physicochemical
Details: perfume ingredients of Table 1a

logP (read-out: LogP)	logP	SMILES
4.67		CCCCCCCCCC(C)C=O (stereo not shown) [2-Methylundecanal]
3.04		CC12CCC(CC1=O)C2(C)C (stereo not shown) [Camphor]
	4.31	CC1C(C)(C)C2=C(C(=O)CCC2)C1(C)C (stereo not shown) [Cashmeran®, 1,2,3,5,6,7-Hexahydro-1,2,3,3-pentamethyl-4h-inden-4-one]
	3.47	C=CC(C)CCCC(C)(C)O (stereo not shown) [Dihydromyrcenol]
	4.47	C=CC(C)CCCC(C)(C)OC(C)=O (stereo not shown) [Dihydromyrcenyl acetate]
3.13		CC12CCC(CC1)C(C)(C)O2 [Eucalyptol]
4.84		CC(=O)C(C)=CC1C(C)=CCCC1(C)C (stereo not shown) [Isoraldeine® 70, 3-Methyl-4-(2,6,6-trimethyl-2cyclohexen-1-yl)-3-buten-2-one]
2.87		CC(C)[C@@H]1CC[C@@H](C)CC1=O [Menthone]
5.18		CC(C)=CCCC1=CCC(C)(C=O)CC1 (stereo not shown) [Precyclemone B, 1-Methyl-4-(4-methyl-3-pentenyl)cyclohex-3-ene-1-carboxaldehyde]

SMILES	logP (read-out: LogP)	logP
C=CC(C)(CCC=C(C)C)OC(C)=O (stereo not shown) [Linalyl acetate]	4.39	
